# Reference: US8933233B2, “1,3,4-oxadiazole and 1,3,4-thiadiazole β-lactamase inhibitors” (priority 2012, dated 2015)
# Counter-ions that a name gives are not always drawn.
# Tested on: bacterial strains that express the class D cephalosporinase OXA-15
# Assay: Synergy MIC / standard BLI potentiation MIC assay, strains expressing OXA-15
# Type: cell-based, E. coli
# Settings: in presence of a β-lactam; comparator Avibactam (CCC)
# Procedure: (§1) Unless otherwise indicated, the activity of the BLI compounds can be described by the MIC value obtained from a Synergy MIC assay or a BLI potentiation assay (e.g as described herein), both of which are run in the presence of a β-lactam.
# (§2) The experimental protocol was performed according to Clinical and Laboratory Standards Institute (CLSI) guidelines with modifications as described below (CLSI guidelines can be derived from the CLSI document M07-A9 published in January 2012: “Methods for Dilution Antimicrobial Susceptibility Tests for Bacteria That Grow Aerobically; Approved Standard-Ninth Edition”).
# (§3) To prepare for MIC testing, frozen glycerol stocks of clinical isolates (Klebsiella pneumoniae, Eschericia coli, Enterobacter spp, Citrobacter spp, or Pseudomonas aeruginosa) were used to streak for isolated colonies on rich, non-selective, tryptic soy agar containing 5% sheep's blood (TSAB). Frozen glycerol stocks of laboratory engineered, isogenic E. coli strains, which contain cloned β-lactamase expressing plasmids were used to streak for isolated colonies on rich, selective LB agar supplemented with 25 μg/mL tetracycline to maintain the plasmid. All strains were incubated at 37° C. for 18-24 hrs.
# (§4) On the day of testing, primary cultures were started by scraping off 5-10 colonies from the TSAB plates containing clinical strains or the tetracycline supplemented LB plates containing engineered strains. The clinical strain material was suspended in ˜5 mL of cation adjusted Mueller Hinton Broth (CAMHB) in 14 mL culture tubes. The engineered strain material was suspended in CAMHB (supplemented with 25 μg/mL tetracycline) in 14 mL culture tubes. All strains were incubated at 37° C. with aeration (200 rpm) for ˜2 hrs until the optical density at 600 nm (OD600) was ≧0.1.
# (§5) The two compound components of the assay were each diluted in CAMHB and added to the 96-well broth microdilution assay plates. 50 μL of the β-lactam was added to each well of the assay plate in 2-fold dilutions with final concentrations ranging from 128 to 0.13 μg/mL. 25 μL of the BLI compound was added to all wells in the broth microdilution plates at a final concentration of 4 μg/mL. Inoculum cultures were prepared by standardizing the primary cultures to OD600=0.1 and then adding 20 μL of the adjusted primary culture per 1 mL CAMHB for clinical strains or CAMHB (supplemented with tetracycline at 100 μg/mL) for engineered strains, so that the final inoculum density was ˜10^5 colony forming units per milliliter. Diluted inoculum cultures were used to inoculate 25 μL per well in 96-well broth microdilution assay plates. The final volume of each well was 100 μL and contained a β-lactam at different concentrations, a BLIcompound at 4 μg/mL concentration, the bacterial culture at an OD600 of approximately 0.001 and when necessary tetracycline at 25 μg/mL.
# (§6) Plates were incubated for 18-20 hours at 37° C. with aeration (200 rpm). Following incubation, growth was confirmed visually placing plates over a viewing apparatus (stand with a mirror underneath) and then OD600 was measured using a SpectraMax 340PC384 plate reader (Molecular Devices, Sunnyvale, Calif.). Growth was defined as turbidity that could be detected with the naked eye or achieving minimum OD600 of 0.1. MIC values were defined as the lowest concentration producing no visible turbidity.
# (§7) The synergy MIC (sMIC) assay determines the concentration of the BLI required to potentiate the activity of a fixed concentration of a β-lactam antibiotic against β-lactamase producing bacterial strains. The experimental protocol was performed according to Clinical and Laboratory Standards Institute (CLSI) guidelines with modifications as described below (CLSI guidelines can be derived from the CLSI document M07-A9 published in January 2012: “Methods for Dilution Antimicrobial Susceptibility Tests for Bacteria That Grow Aerobically; Approved Standard-Ninth Edition”). […]
row,SMILES,"activity against bacterial strains that express OXA-15, compared with Avibactam"
1,"O=C1N2C[C@@H](CC[C@H]2c2nnc(N3CCNCC3)o2)N1OS(=O)(=O)O [Compound 713, (2S,5R)-7-oxo-2-(5-(piperazin-1-yl)-1,3,4-oxadiazol-2-yl)-1,6-diazabicyclo[3.2.1]octan-6-yl hydrogen sulfate]",more active than Avibactam
2,"NCC(O)c1nnc([C@@H]2CC[C@@H]3CN2C(=O)N3OS(=O)(=O)O)o1 (stereo partly drawn) [Compound 715, (2S,5R)-2-(5-(2-amino-1-hydroxyethyl)-1,3,4-oxadiazol-2-yl)-7-oxo-1,6-diazabicyclo[3.2.1]octan-6-yl hydrogen sulfate]",more active than Avibactam
3,"Nc1nnc([C@@H]2CC[C@@H]3CN2C(=O)N3OS(=O)(=O)O)o1 [Compound 707, (2S,5R)-2-(5-amino-1,3,4-oxadiazol-2-yl)-7-oxo-1,6-diazabicyclo[3.2.1]octan-6-yl hydrogen sulfate]",more active than Avibactam
4,"O=C1N2C[C@@H](CC[C@H]2c2nnc(CC3CNC3)o2)N1OS(=O)(=O)O [Compound 725, (2S,5R)-2-(5-(azetidin-3-ylmethyl)-1,3,4-oxadiazol-2-yl)-7-oxo-1,6-diazabicyclo[3.2.1]octan-6-yl hydrogen sulfate]",more active than Avibactam
5,"NCCNCCc1nnc([C@@H]2CC[C@@H]3CN2C(=O)N3OS(=O)(=O)O)o1 [Compound 716, (2S,5R)-2-(5-(2-((2-aminoethyl)amino)ethyl)-1,3,4-oxadiazol-2-yl)-7-oxo-1,6-diazabicyclo[3.2.1]octan-6-yl hydrogen sulfate]",more active than Avibactam
6,"O=C1N2C[C@@H](CC[C@H]2c2nnc(C3CCNCC3)s2)N1OS(=O)(=O)O [Compound 719, (2S,5R)-7-oxo-2-(5-(piperidin-4-yl)-1,3,4-thiadiazol-2-yl)-1,6-diazabicyclo[3.2.1]octan-6-yl hydrogen sulfate]",more active than Avibactam
7,"O=C1N2C[C@@H](CC[C@H]2c2nnc(CCCN3CCNCC3)o2)N1OS(=O)(=O)O [Compound 792, (2S,5R)-7-oxo-2-(5-(3-(piperazin-1-yl)propyl)-1,3,4-oxadiazol-2-yl)-1,6-diazabicyclo[3.2.1]octan-6-yl hydrogen sulfate]",more active than Avibactam
8,"O=C1N2C[C@@H](CC[C@H]2c2nnc(CNC3CCNCC3)o2)N1OS(=O)(=O)O [Compound 769, (2S,5R)-7-oxo-2-(5-((piperidin-4-ylamino)methyl)-1,3,4-oxadiazol-2-yl)-1,6-diazabicyclo[3.2.1]octan-6-yl hydrogen sulfate]",more active than Avibactam
9,"N=C(N)N1CCC(c2nnc([C@@H]3CC[C@@H]4CN3C(=O)N4OS(=O)(=O)O)o2)CC1 [Compound 712, (2S,5R)-2-(5-(1-carbamimidoylpiperidin-4-yl)-1,3,4-oxadiazol-2-yl)-7-oxo-1,6-diazabicyclo[3.2.1]octan-6-yl hydrogen sulfate]",more active than Avibactam
10,"N=C(N)NCc1nnc([C@@H]2CC[C@@H]3CN2C(=O)N3OS(=O)(=O)O)o1 [Compound 704, (2S,5R)-2-(5-(guanidinomethyl)-1,3,4-oxadiazol-2-yl)-7-oxo-1,6-diazabicyclo[3.2.1]octan-6-yl hydrogen sulfate]",more active than Avibactam
11,"NC1CCN(c2nnc([C@@H]3CC[C@@H]4CN3C(=O)N4OS(=O)(=O)O)o2)CC1 [Compound 773, (2S,5R)-2-(5-(4-aminopiperidin-1-yl)-1,3,4-oxadiazol-2-yl)-7-oxo-1,6-diazabicyclo[3.2.1]octan-6-yl hydrogen sulfate]",more active than Avibactam
12,"N=C(N)NCCCc1nnc([C@@H]2CC[C@@H]3CN2C(=O)N3OS(=O)(=O)O)o1 [Compound 714, (2S,5R)-2-(5-(3-guanidinopropyl)-1,3,4-oxadiazol-2-yl)-7-oxo-1,6-diazabicyclo[3.2.1]octan-6-yl hydrogen sulfate]",more active than Avibactam
13,"NCC(O)Cc1nnc([C@@H]2CC[C@@H]3CN2C(=O)N3OS(=O)(=O)O)o1 (stereo partly drawn) [Compound 733, (2S,5R)-2-(5-(3-amino-2-hydroxypropyl)-1,3,4-oxadiazol-2-yl)-7-oxo-1,6-diazabicyclo[3.2.1]octan-6-yl hydrogen sulfate]",more active than Avibactam
14,"O=C1N2C[C@@H](CC[C@H]2c2nnc(N3CCNCC3)s2)N1OS(=O)(=O)O [Compound 797, (2S,5R)-7-oxo-2-(5-(piperazin-1-yl)-1,3,4-thiadiazol-2-yl)-1,6-diazabicyclo[3.2.1]octan-6-yl hydrogen sulfate]",more active than Avibactam
15,"O=C1N2C[C@@H](CC[C@H]2c2nnc([C@@H]3CNCCN3)o2)N1OS(=O)(=O)O [Compound 778, (2S,5R)-7-oxo-2-(5-((S)-piperazin-2-yl)-1,3,4-oxadiazol-2-yl)-1,6-diazabicyclo[3.2.1]octan-6-yl hydrogen sulfate]",more active than Avibactam
16,"N[C@H]1CC[C@@H](c2nnc([C@@H]3CC[C@@H]4CN3C(=O)N4OS(=O)(=O)O)o2)CC1 [Compound 780, (2S,5R)-2-(5-((1s,4R)-4-aminocyclohexyl)-1,3,4-oxadiazol-2-yl)-7-oxo-1,6-diazabicyclo[3.2.1]octan-6-yl hydrogen sulfate]",more active than Avibactam
17,"N[C@H]1CC[C@H](c2nnc([C@@H]3CC[C@@H]4CN3C(=O)N4OS(=O)(=O)O)o2)CC1 [Compound 781, (2S,5R)-2-(5-((1r,4S)-4-aminocyclohexyl)-1,3,4-oxadiazol-2-yl)-7-oxo-1,6-diazabicyclo[3.2.1]octan-6-yl hydrogen sulfate]",more active than Avibactam
18,"NCC(N)c1nnc([C@@H]2CC[C@@H]3CN2C(=O)N3OS(=O)(=O)O)o1 (stereo partly drawn) [Compound 717, (2S,5R)-2-(5-(1,2-diaminoethyl)-1,3,4-oxadiazol-2-yl)-7-oxo-1,6-diazabicyclo[3.2.1]octan-6-yl hydrogen sulfate]",more active than Avibactam
19,"N=C(N)N[C@H]1C[C@H](c2nnc([C@@H]3CC[C@@H]4CN3C(=O)N4OS(=O)(=O)O)o2)C1 [Compound 748, (2S,5R)-2-(5-((1r,3S)-3-guanidinocyclobutyl)-1,3,4-oxadiazol-2-yl)-7-oxo-1,6-diazabicyclo[3.2.1]octan-6-yl hydrogen sulfate]",more active than Avibactam
20,"N[C@H]1C[C@H](NCc2nnc([C@@H]3CC[C@@H]4CN3C(=O)N4OS(=O)(=O)O)o2)C1 [Compound 757, (2S,5R)-2-(5-((((1r,3S)-3-aminocyclobutyl)amino)methyl)-1,3,4-oxadiazol-2-yl)-7-oxo-1,6-diazabicyclo[3.2.1]octan-6-yl hydrogen sulfate]",more active than Avibactam

# Tested on: bacterial strains that express KPC β-lactamases
# Assay: Synergy MIC / standard BLI potentiation MIC assay, strains expressing KPC β-lactamases
# Type: cell-based, isogenic E. coli and clinical isolates
# Settings: more active for at least one KPC strain and/or better spectrum; comparator Avibactam
# Procedure: as §1, §2, §3, §4, §5, §6, §7
row,SMILES,"activity and/or spectrum of activity against bacterial strains that express KPC β-lactamases, compared with Avibactam"
1,"NC1CCN(CCc2nnc([C@@H]3CC[C@@H]4CN3C(=O)N4OS(=O)(=O)O)o2)CC1 [Compound 775, (2S,5R)-2-(5-(2-(4-aminopiperidin-1-yl)ethyl)-1,3,4-oxadiazol-2-yl)-7-oxo-1,6-diazabicyclo[3.2.1]octan-6-yl hydrogen sulfate]",more active than Avibactam
